According to US20020137929A1, “1 - (3-heterocyclylphenyl) isothiourea, -isourea, -guanidine and -amidine herbicidal agents” (Intellectual Property Department, BASF Aktiengesellschaft, priority 1998, published 2002):

Legend:
[1] = system: SAGPY (Arrowhead (Pygmaea)); test: Postemergence weed control under flooded paddy conditions; type: in vivo, Sagittaria pygmaea; details: postemergence weeds, rated 3 to 4 weeks after treatment
Outline: (§1)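 With weeds 3 to 5 cm tall and rice at the 1.5 to 2.5 leaf stage, containers were flooded and water held 1.5 to 3 cm above soil. Compounds in 50/50 v/v aqueous/acetone went into the flood water at about 0.0313 to 0.500 kg/ha a.i. Effects were visually rated 0–9 against controls after three to four weeks in the greenhouse.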

GALAP (Galium) = test: Postemergence herbicidal evaluation; type: in vivo, Galium aparine; details: postemergence
Outline: (§2)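 ~2-wk seedlings; postemergence spray, 40 psi; vehicle 1:1 acetone:water + 0.5% Tween 20; rate ≈0.0156–0.500 kg/ha; greenhouse hold; scored 4–5 wk after treatment, 0–9 scale vs control; repeat tests averaged.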

ORYSAT (Rice, Tebonnet) [2] = test: Preemergence herbicidal evaluation; type: in vivo, Oryza sativa, (L.) Tebonnet; details: preemergence, rated 4-5 weeks after treatment, 0-9 scale
Outline: (§3)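 Rating at 4–5 wk post-spray on a 0–9 visual scale vs control. Application: aqueous acetone, ~0.0156–0.500 kg/ha, to soil surface after seeding, preemergence.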

ORYSAT (Rice, Tebonnet) [3] = test: Postemergence herbicidal evaluation; type: in vivo, Oryza sativa, (L.) Tebonnet; details: postemergence
Outline: as §2

CYPSE (Flatsedge) [4] = test: Postemergence weed control under flooded paddy conditions; type: in vivo, Cyperus serotinus; details: postemergence weeds, rated 3 to 4 weeks after treatment
Outline: as §1

CASOB (Sicklepod) = test: Postemergence herbicidal evaluation; type: in vivo, Cassia obtusifolia; details: postemergence
Outline: as §2

AMBEL (Ragweed, Common) = test: Preemergence herbicidal evaluation; type: in vivo, Ambrosia artemisifolia; details: preemergence, rated 4-5 weeks after treatment, 0-9 scale
Outline: as §3

MOOVA (Monochoria) = test: Preemergence weed control under flooded paddy conditions; type: in vivo, Monochoria vaginalis; details: rated 3-4 weeks after treatment
Outline: (§4)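 Using flooded silt loam (water 1.5 to 3 cm deep), seeds sown in the top 0.5 cm were exposed preemergence to compound pipetted into the flood at about 0.0313 to 0.500 kg/ha. Effects were scored 0-9 by eye three to four weeks later.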

CYPIR (Rice Flatsedge) = test: Postemergence weed control under flooded paddy conditions; type: in vivo, Cyperus iria; details: postemergence weeds, rated 3 to 4 weeks after treatment
Outline: as §1

[5] = system: GLXMAW (Soybean, Williams); test: Preemergence herbicidal evaluation; type: in vivo, Glycine max, (L.) Merr. cv Williams; details: preemergence, rated 4-5 weeks after treatment, 0-9 scale
Outline: as §3

[6] = system: CHEAL (Lambsquarters, Common); test: Postemergence herbicidal evaluation; type: in vivo, Chenopodium album; details: postemergence
Outline: as §2

SETVI (Foxtail, Green) = test: Preemergence herbicidal evaluation; type: in vivo, Setaria viridis; details: preemergence, rated 4-5 weeks after treatment, 0-9 scale
Outline: as §3

CYPSE (Flatsedge) [7] = test: Preemergence weed control under flooded paddy conditions; type: in vivo, Cyperus serotinus; details: rated 3-4 weeks after treatment
Outline: as §4

ZEAMX (Corn, Field) = test: Postemergence herbicidal evaluation; type: in vivo, Zea mays; details: postemergence
Outline: as §2

CCOC(=O)CN1C(=O)C(CC(=O)NS(=O)(=O)c2ccccc2)SC1=Nc1cc(-n2c(=O)cc(C(F)(F)F)n(C)c2=O)c(F)cc1Cl (stereo not drawn) [Compound 100, Ethyl 2-{{2-chloro-5-[3,6-dihydro-3-methyl-2,6-dioxo-4-(trifluoromethyl)-1(2H)-pyrimidinyl]-4-fluorophenyl}imino}-4-oxo-5-{[(phenylsulfonyl)-carbamoyl]methyl]-3-thiazolidineacetate]
Herbicidal rating SAGPY ([1]; Rate 0.0313 kg/ha): 0.0 | Herbicidal rating SAGPY ([1]; Rate 0.0625 kg/ha): 0.0 | Herbicidal rating SAGPY ([1]; Rate 0.1250 kg/ha): 0.0 | Herbicidal rating SAGPY ([1]; Rate 0.2500 kg/ha): 4.0 | Herbicidal rating SAGPY ([1]; Rate 0.5000 kg/ha): 6.0 | herbicidal rating GALAP (GALAP (Galium); rate 0.0156 kg/ha): 1.0 | herbicidal rating GALAP (GALAP (Galium); rate 0.0313 kg/ha): 2.0 | herbicidal rating GALAP (GALAP (Galium); rate 0.0625 kg/ha): 3.0 | herbicidal rating GALAP (GALAP (Galium); rate 0.1250 kg/ha): 3.0 | ORYSAT rating (ORYSAT (Rice, Tebonnet) [2]; 0.0313 kg/ha): 0.0 | ORYSAT rating (ORYSAT (Rice, Tebonnet) [2]; 0.0625 kg/ha): 0.0 | ORYSAT rating (ORYSAT (Rice, Tebonnet) [2]; 0.1250 kg/ha): 0.0 | ORYSAT rating (ORYSAT (Rice, Tebonnet) [2]; 0.2500 kg/ha): 0.0 | ORYSAT rating (ORYSAT (Rice, Tebonnet) [2]; 0.5000 kg/ha): 1.0 | herbicidal rating ORYSAT (ORYSAT (Rice, Tebonnet) [3]; rate 0.0156 kg/ha): 3.0 | herbicidal rating ORYSAT (ORYSAT (Rice, Tebonnet) [3]; rate 0.0313 kg/ha): 3.5 | herbicidal rating ORYSAT (ORYSAT (Rice, Tebonnet) [3]; rate 0.0625 kg/ha): 3.5 | herbicidal rating ORYSAT (ORYSAT (Rice, Tebonnet) [3]; rate 0.1250 kg/ha): 3.5 | Herbicidal rating CYPSE (CYPSE (Flatsedge) [4]; Rate 0.0313 kg/ha): 0.0 | Herbicidal rating CYPSE (CYPSE (Flatsedge) [4]; Rate 0.0625 kg/ha): 0.0 | Herbicidal rating CYPSE (CYPSE (Flatsedge) [4]; Rate 0.1250 kg/ha): 0.0 | Herbicidal rating CYPSE (CYPSE (Flatsedge) [4]; Rate 0.2500 kg/ha): 0.0 | herbicidal rating CASOB (CASOB (Sicklepod); rate 0.0156 kg/ha): 2.0 | herbicidal rating CASOB (CASOB (Sicklepod); rate 0.0313 kg/ha): 7.0 | herbicidal rating CASOB (CASOB (Sicklepod); rate 0.0625 kg/ha): 6.0 | herbicidal rating CASOB (CASOB (Sicklepod); rate 0.1250 kg/ha): 9.0 | AMBEL rating (AMBEL (Ragweed, Common); 0.0313 kg/ha): 0.0 | AMBEL rating (AMBEL (Ragweed, Common); 0.0625 kg/ha): 0.0 | AMBEL rating (AMBEL (Ragweed, Common); 0.1250 kg/ha): 1.0 | AMBEL rating (AMBEL (Ragweed, Common); 0.2500 kg/ha): 1.0 | AMBEL rating (AMBEL (Ragweed, Common); 0.5000 kg/ha): 7.0 | MOOVA herbicidal effect rating (MOOVA (Monochoria); 0.0313 kg/ha): 9.0 | MOOVA herbicidal effect rating (MOOVA (Monochoria); 0.0625 kg/ha): 9.0 | MOOVA herbicidal effect rating (MOOVA (Monochoria); 0.1250 kg/ha): 9.0 | MOOVA herbicidal effect rating (MOOVA (Monochoria); 0.2500 kg/ha): 9.0 | MOOVA herbicidal effect rating (MOOVA (Monochoria); 0.5000 kg/ha): 9.0 | Herbicidal rating CYPIR (CYPIR (Rice Flatsedge); Rate 0.0313 kg/ha): 0.0 | Herbicidal rating CYPIR (CYPIR (Rice Flatsedge); Rate 0.0625 kg/ha): 0.0 | Herbicidal rating CYPIR (CYPIR (Rice Flatsedge); Rate 0.1250 kg/ha): 0.0 | Herbicidal rating CYPIR (CYPIR (Rice Flatsedge); Rate 0.2500 kg/ha): 4.0 | Herbicidal rating CYPIR (CYPIR (Rice Flatsedge); Rate 0.5000 kg/ha): 9.0 | GLXMAW rating ([5]; 0.0313 kg/ha): 0.0 | GLXMAW rating ([5]; 0.0625 kg/ha): 1.0 | GLXMAW rating ([5]; 0.1250 kg/ha): 1.0 | GLXMAW rating ([5]; 0.2500 kg/ha): 0.0 | GLXMAW rating ([5]; 0.5000 kg/ha): 2.0 | herbicidal rating CHEAL ([6]; rate 0.0156 kg/ha): 5.0 | herbicidal rating CHEAL ([6]; rate 0.0313 kg/ha): 7.0 | herbicidal rating CHEAL ([6]; rate 0.0625 kg/ha): 7.0 | herbicidal rating CHEAL ([6]; rate 0.1250 kg/ha): 9.0 | SETVI rating (SETVI (Foxtail, Green); 0.0313 kg/ha): 0.0 | SETVI rating (SETVI (Foxtail, Green); 0.0625 kg/ha): 1.0 | SETVI rating (SETVI (Foxtail, Green); 0.1250 kg/ha): 0.0 | SETVI rating (SETVI (Foxtail, Green); 0.2500 kg/ha): 1.0 | SETVI rating (SETVI (Foxtail, Green); 0.5000 kg/ha): 1.0 | CYPSE herbicidal effect rating (CYPSE (Flatsedge) [7]; 0.0313 kg/ha): 0.0 | CYPSE herbicidal effect rating (CYPSE (Flatsedge) [7]; 0.0625 kg/ha): 0.0 | CYPSE herbicidal effect rating (CYPSE (Flatsedge) [7]; 0.1250 kg/ha): 0.0 | CYPSE herbicidal effect rating (CYPSE (Flatsedge) [7]; 0.2500 kg/ha): 0.0 | herbicidal rating ZEAMX (ZEAMX (Corn, Field); rate 0.0156 kg/ha): 4.5 | herbicidal rating ZEAMX (ZEAMX (Corn, Field); rate 0.0313 kg/ha): 5.0 | herbicidal rating ZEAMX (ZEAMX (Corn, Field); rate 0.0625 kg/ha): 5.0 | herbicidal rating ZEAMX (ZEAMX (Corn, Field); rate 0.1250 kg/ha): 5.0
